Assay results reported in patent US20250052985A1, “SYSTEM AND METHOD FOR QUANTITATIVE PHASE IMAGING FOR MULTI-PARAMETRIC SCREENING OF TUMOR THERAPY RESPONSE” (UNIVERSITY OF UTAH RESEARCH FOUNDATION, priority 2023, published 2025).
Values joined by “and” are separate entries in the source; they are usually repeats but may differ in a detail not shown here. Equal entries are not always repeated. Where two headings read alike, the source gives them in different places.

Key:
[1] = test system: BT-474 cells; experiment: CellTiter-Glo (CTG) ATP viability assay, BT-474; type: cell-based; details: for EC50: Homo sapiens
Description: CTG (e.g., read by the CTG reader 115) is a cell viability assay that quantifies the amount of ATP present at the end of an experiment as an indicator of the number of live cells. The electronic controller 155 measures ATP content in each condition as a readout by a luminescent signal, which is normalized by the luminescence of the control (e.g., a control well) to determine cell viability relative to on-plate controls. In some embodiments, the CTG assay is performed by first removing 100 μL of media from each well on the well-plate 105, which is then replaced with an equal amount of CellTiter-Glo reagent (e.g., Promega, G7572). Assayed plates may be shaken at 500 RPM for 20 minutes and allowed to rest for 10 minutes. In some instances, 100 μL of volume from each well is transferred to a white 96-well plate (e.g., Perkin Elmer, 6005680). The electronic controller 155 collects luminescence data from each well using an Envision plate reader (e.g., Perkin Elmer) and normalized against the solvent control to measure ATP content. The electronic controller 155 fits a 4-parameter hill curve to the dose response to determine the EC50 and depth of response.

[2] = test system: MDA-MB-231 cells; experiment: Quantitative phase imaging (QPI) growth response, MDA-MB-231; type: cell-based; parameters: DoR QPI: scale not given here; ToR 20 μM: unit not given here; details: for Max Asymptote / Min Asymptote: MDA-MB-231, 4-parameter Hill fit of mean SGR vs concentration, one line per replicate; for EC50: Homo sapiens; for SGR (specific growth rate) / tD: one individual MDA-MB-231 cell, 2 μM doxorubicin
From the text: (§1) In some embodiments, breast cancer cell lines are imaged, representing diverse clinical subtypes, summarized in Table 2 below, using a QPI microscope (FIG. 1A) based on differential phase contrast (DPC) microscopy and phase reconstruction via a QPI microscope system. DPC is used for image acquisition and phase reconstruction because DPC's flexible design may be customized for high throughput phase measurements. […] As illustrated in the embodiment of FIG. 1A, a QPI microscope system 100 conducts assays in a 96-well plate (e.g., a well-plate 105) with 6-point dose response curves and up to five therapies in triplicate including solvent controls, summarized in Table 4 below. As described below, in reference to FIG. 1A, a growth response of cells is measured noninvasively using QPI via a QPI microscope system 110 before being assayed using a CTG reader 115.
(§2) FIG. 1B illustrates a timeline plot 200 showing two plates (e.g., two, separate well-plates 105) set up in parallel to measure cell viability. With reference to FIG. 1B, two plates are set-up simultaneously for each experiment. A first plate 205 is incubated for 27 hours (h) post drug exposure prior to CTG analysis (3 h equilibration+24 h of imaging), which measures cell adenosine triphosphate (ATP) content as a surrogate for cell viability. A second plate 210 is imaged for 72 h after 3 h equilibration (e.g., 75 h) and followed by CTG. […] The imaging locations are imaged for 72 h, as shown by images 1700-1715 of FIG. 7.
(§3) In some embodiments, a dose-dependent change in growth, as indicated by a change in the rate of mass accumulation or loss, is a parameter that can be extracted from QPI dose-response data. […] Individual specific growth rate measurements are indicated by points in the distribution of the graph 1200 of FIG. 2A. Blue is indicative of the DMSO control and red is indicative of doxorubicin. The black outline is a kernel density function fit to the distribution of specific growth rates for each condition (e.g., *p<0.05, **p<0.01). In some embodiments, the average SGR of each condition is fit to a sigmoid dose-response curve using a Hill equation. For example, computed logistic fit parameters using a 4-parameter Hill model via the QPI microscope system 110 for all conditions are summarized in Tables 5-8 below. To determine if there is a response, as illustrated by FIG. 2B, the QPI microscope system 110 tests goodness of fit, adjusts for degrees of freedom using an F-test at significance p<0.01 by comparison to a flat line, as an indicator of no response. For cases with a better fit to the Hill equation, the 4-parameter Hill curve may be used by the QPI microscope system 110 to determine the EC50, a measure of sensitivity to therapy because it represents the effective concentration at which 50% of the cells respond to therapy, as illustrated by FIG. 10. […] A 4-parameter Hill curve is fit to each dose response plot to extract the depth of response and EC50 for each cell/drug pair. A flat line represents no response due to failure of the F-test to reject the null hypothesis that the logistic fit is indistinguishable from a flat line. […] Each color indicates a different drug or therapy used.

[3] = test system: BT-474 cells; experiment: cells; details: for Max Asymptote / Min Asymptote: BT-474, 4-parameter Hill fit of mean SGR vs concentration, one line per replicate; for Hill Slope / log10(EC50): BT-474, Hill fit; for EC50: Homo sapiens
From the text: as §1, §2, §3

[4] = test system: MCF-7 cells; experiment: cells; details: for Hill Slope / log10(EC50): MCF-7, Hill fit; for EC50: Homo sapiens
From the text: as §1, §2, §3

[5] = 24 h QPI, EC50 in μM per Table 1
[6] = 72 h QPI, EC50 in μM per Table 1

## COc1cccc2c1C(=O)c1c(O)c3c(c(O)c1C2=O)C[C@@](O)(C(=O)CO)C[C@@H]3O[C@H]1C[C@H](N)[C@H](O)[C@H](C)O1 [Doxorubicin]
[1]; 72 h CTG, BT-474, Hill fit
  Hill Slope: 8.999 and 8.652
  log10(EC50): 0.3455
[1]; 72 h CTG, BT-474, Hill fit of luminescence normalized to solvent control, one line per replicate
  Min Asymptote: 0.5407 (2×) and 0.5602
[1]; BT-474 cell line, depth of response, CellTiter-Glo
  DoR CTG: 0.5
[1]; BT-474, 72 h, 72 h CTG, BT-474, Hill fit, read-out: log10(EC50) (converted)
  EC50: 434 nM
[1]; BT-474, BT-474 cell line, CellTiter-Glo, read-out: EC50, CTG
  EC50: 400 nM
[2]; 24 h QPI
  Max Asymptote: 0.03123 and 0.03492 and 0.03444
  Min Asymptote: 0.002229 and 0.006476 and 0.003476
[2]; 24 h QPI, MDA-MB-231, Hill fit
  Hill Slope: 1.1528 and 1.2328 and 1.1155
[2]; 72 h QPI
  Max Asymptote: 0.0002323 and 0.002183
  Min Asymptote: 0.03291 and 0.03136
[2]; 72 h QPI, MDA-MB-231, Hill fit
  Hill Slope: 0.9982 and 1.1886
[2]; 72 h QPI, MDA-MB-231, Hill fit, EC50 in μM per Table 1
  log10(EC50): 1.0414
[2]; MDA-MB-231, 72 h, 72 h QPI, MDA-MB-231, Hill fit, EC50 in μM per Table 1, read-out: log10(EC50) (converted)
  EC50: 0.0794 µM
[2]; MDA-MB-231, MDA-MB-231 cell line, EC50 of the standard deviation, read-out: EC50, SD (converted)
  EC50: 0.549 µM
[2]; MDA-MB-231, MDA-MB-231 cell line, QPI growth rate, read-out: EC50, QPI
  EC50: 0.1 µM
[2]; MDA-MB-231, 0.08 μM
  Hellinger distance of SGR distribution from control: greater than the threshold indicating a response
[2]; MDA-MB-231, 0.4 μM
  Hellinger distance of SGR distribution from control: much greater Hellinger distance from the control
[2]; MDA-MB-231, 20 μM, 72 h
  reduction of heterogeneity (SD of growth rates): fourfold
[2]; MDA-MB-231, highest concentration, FIG. 21 F
  growth rate and heterogeneity over time: simultaneously decreases in growth rate and heterogeneity
[2]; MDA-MB-231, middle concentrations, FIG. 21 C-E
  growth rate and heterogeneity over time: change in growth rate over time with little to no change in heterogeneity
[2]; MDA-MB-231 cell line, depth of response, QPI
  DoR QPI: 1.0
[2]; MDA-MB-231 cell line, time of response at 20 μM
  ToR 20 μM: −3.0
[2]; abrupt decrease in mass during cell death
  SGR (specific growth rate): -0.217 h⁻¹
[2]; first 10 h
  tD: 19 h
[2]; first 10 h, robust growth
  SGR (specific growth rate): 0.0358 h⁻¹
[2]; next 26 h
  tD: 66 h
[2]; next 26 h, reduced growth
  SGR (specific growth rate): 0.0105 h⁻¹
[2]; subsequent gradual loss of mass
  SGR (specific growth rate): -0.0033 h⁻¹
[3]; 24 h QPI
  Max Asymptote: 0.01297 and 0.01051 and 0.00993
  Min Asymptote: −0.001567 and −0.002506 and −0.002371
  Hill Slope: 1.5047 and 1.6529 and 1.3096
[3]; [5]
  log10(EC50): −0.2827 and −0.2235
[3]; 72 h QPI
  Max Asymptote: −0.00359 and −0.003807 and −0.003696
  Min Asymptote: 0.009626 and 0.009175 and 0.009318
  Hill Slope: 3.7081 and 4.795 and 3.6266
[3]; [6]
  log10(EC50): 0.3361 and 0.3186
[3]; BT-474 cell line, depth of response, QPI
  DoR QPI: 1.4
[3]; BT-474 cell line, time of response at 20 μM
  ToR 20 μM: 3.4
[3]; BT-474, 24 h, read-out: log10(EC50), 24 h QPI, BT-474, Hill fit (converted), EC50 in μM per Table 1
  EC50: 1.78 µM
[3]; BT-474, 72 h, read-out: log10(EC50), 72 h QPI, BT-474, Hill fit (converted), EC50 in μM per Table 1
  EC50: 0.475 µM
[3]; BT-474, read-out: EC50, QPI, BT-474 cell line, QPI growth rate
  EC50: 0.5 µM
[3]; small cluster of BT-474 cells, 2 μM, 72 h
  cluster mass tracked over time: losing mass
[4]; 24 h QPI, MCF-7, 4-parameter Hill fit of mean SGR vs concentration, one line per replicate
  Max Asymptote: 0.03024 and 0.03614 (2×)
[4]; 24 h QPI
  Hill Slope: 0.4225 and 0.5056
[4]; [5]
  log10(EC50): 0.2581
[4]; 72 h QPI, MCF-7, 4-parameter Hill fit of mean SGR vs concentration, one line per replicate
  Min Asymptote: 0.02487 and 0.02696 and 0.02807
[4]; 72 h QPI
  Hill Slope: 1.1171 and 1.2782 and 1.7872
[4]; [6]
  log10(EC50): 0.7197 and 0.7012
[4]; MCF7, 72 h, read-out: log10(EC50), 72 h QPI, MCF-7, Hill fit (converted), EC50 in μM per Table 1
  EC50: 0.235 µM
[4]; MCF7, read-out: EC50, QPI, MCF-7 cell line, QPI growth rate
  EC50: 0.2 µM
[4]; MCF7, read-out: EC50, SD, MCF-7 cell line, EC50 of the standard deviation
  EC50: 11 µM
[4]; MCF-7, 20 μM, highest dose tested
  SGR minimum (mean±standard deviation, SD): −0.003+0.004 h^−1
[4]; MCF-7 cell line, depth of response, QPI
  DoR QPI: 1.1
[4]; MCF-7 cell line, time of response at 20 μM
  ToR 20 μM: −1.3
